Laboratory results reported in US7939267B2, “Detection of activation of endothelial cells as surrogate marker for angiogenesis” (Laboratory Corporation of America Holdings, priority 2004, dated 2011).
Read-outs that look alike come from different tables or passages of the source.

Legend:
BAD = BAD phosphorylation in HUVEC cell lysates, releasable molecular tag assay; assay type: cell-based, human; settings: increasing VEGF concentrations, 5 min stimulation time (FIG. 10C)
Method: • 1. […] Scrape and transfer lysate to microfuge tube. Incubate on ice for 30 min. […] (Centrifugation is optional.) • 5. […] Assay:
(§1) The total assay volume was 40 ul. […] The detection limit was ˜1000 cell-equivalent of lysates.
Pro52_anti-BAD (Total), 5 nM
Pro46_anti-Phospho-BAD (Phosphorylation), 5 nM
Pro53_anti-phospho-RSK (Phosphorylation), 5 nM • 1. […] Add 20 μl of Antibody mixture. • 3. […] Empty filter plate by vacuum suction. • 6. […] Repeat step 6 one more time. • 8. […] Illuminate the plate for 10 min. • 10.

Akt = settings: HUVEC, increasing VEGF concentrations, data not shown
Description: Results of the assays are illustrated in FIGS. 10A, 10B and 10C.

VEGFR2-VEGFR2 homodimers [1] = molecular target: T1, VEGFR2-VEGFR2 homodimers (Homo sapiens, UniProt P35968)
Method: (§2) In this example, VEGFR2-VEGFR2 homodimers and phosphorylation states were measured in cell lysates from several cell lines after treatment with various concentrations of vascular endothelial growth factor (VEGF). Measurements were made using three binding compounds and a cleaving probe as described below.
(§3) • 1. Serum-starve human umbilical vein endothelial cell line (HUVEC) culture overnight before use. • 2. Stimulate cell lines with VEGF in culture media for a set period of time (1, 3, 5, 9, 14 minutes) at 37° C. Exemplary doses of VEGF are 0, 2, 10, 25, 50, 250, 1000 ng/mL. • 3. Aspirate culture media, transfer onto ice, and add lysis buffer to lyse cells in situ. • 4. Scrape and transfer lysate to microfuge tube. Incubate on ice for 30 min. Microfuge at 14,000 rpm, 4° C., for 10 min. (Centrifugation is optional.) • 5. Collect supernatants as lysates and aliquot for storage at −80° C. until use. Assay:
(§4) Assay design: As illustrated diagrammatically in FIG. 7A, VEGFR2-VEGFR2 (R2-R2) homodimers (900) are quantified ratiometrically based on the binding of a cleaving probe (902), a first bind compound (904) which is specific for the same antigenic determinant on VEGFR2 as the cleaving probe, a second binding compound (906) which is specific for a different antigenic determinant on VEGFR2 from the cleaving probe, and a third binding compound (908) which is specific for phosphorylated tyrosine. A photosensitizer is attached to the cleaving probe (902) via an avidin-biotin linkage, and the first, second, and third binding compounds are labeled with molecular tags Pro10, Pro14, and Pro2, respectively.
(§5) The total assay volume was 40 ul. The lysate volume was adjusted to 30 ul with lysis buffer. The antibodies are diluted in lysis buffer up to 10 ul. Typically ˜5000 to 15000 cell-equivalent of lysates is used per reaction. The detection limit is ˜1000 cell-equivalent of lysates.
(§6) Procedure: Final concentrations of pre-mixed binding compounds (i.e. molecular tag- or biotin-antibody conjugates) in reaction: • Pro10_anti-VEGFR2: 0.25 ug/ml (VEGFR2 homodimer) • Pro14_anti-VEGFR2: 0.25 ug/ml (total VEGFR2) • Pro2_anti-phospho-Tyr: 0.0125 ug/ml (phosphorylation) • Biotin_anti-VEGFR2: 0.25 ug/ml • 1. To assay 96-well, add 10 ul antibody mix to 30 ul lysate and incubate for 1 hour at RT. • 2. Add 2 ul streptavidin-derivatized cleaving probe (final 2 ug/well) to assay well and incubate for 45 min. • 3. Add 150 ul of wash buffer to 96-well filter plate (Millipore MAGVN2250) and incubate for 1 hr at RT for blocking. • 4. Empty filter plate by vacuum suction.

VEGFR2 = VEGFR2 (Homo sapiens, UniProt P35968)
Method: as §2, §3, §4, §5, §6

VEGFR2-VEGFR2 homodimers [2] = molecular target: T1, VEGFR2-VEGFR2 homodimers; remark: listed apart in the source
Method: • 1. […] Scrape and transfer lysate to microfuge tube. Incubate on ice for 30 min. […]

Erk = settings: HUVEC, increasing VEGF concentrations, 5 min stimulation time (FIG. 10A)
Method: as §3
(§7) The total assay volume was 40 ul. The lysate volume was adjusted to 30 ul with lysis buffer.

RSK = settings: HUVEC, increasing VEGF concentrations, 5 min stimulation time (FIG. 10B)
Method: as §3, §7

Tie2 = molecular target: T2, Tie2 (Homo sapiens, UniProt Q02763); test: Total Tie2 receptor in HUVEC cell lysates, releasable molecular tag assay; assay type: cell-based; settings: Ang-1 treatment (FIG. 8B)
T2 construct: endogenous in cells; host or cells: HUVEC
Method: (§8) • 1. […] Stimulate cell lines with 200 ng/mL Ang-1 in culture media for a set period of time (10, 30 minutes) at 37° C. • 3. […] Scrape and transfer lysate to microfuge tube. Incubate on ice for 30 min. […] (Centrifugation is optional.) • 5. […] Assay:
(§9) Assay design: As illustrated diagrammatically in FIG. 4C, Tie2-Tie2 homodimers are quantified ratiometrically based on the binding of cleaving probe (134) and binding compounds (130), and (132). A photosensitizer indicated by “PS” is attached to cleaving probe (134) via an avidin-biotin linkage, and binding compounds (130), and (132) are labeled with molecular tags Pro10, and Pro14, respectively.
as §1
(§10) Pro14_anti-Tie2: 0.25 ug/ml (total Tie2)
(§11) Biotin_anti-Tie2: 0.25 ug/ml • 1. […] Empty filter plate by vacuum suction. […] Repeat one time. • 6. […] Repeat one time. • 7. […] Assay buffers are as previously described. Data Analysis: • 1. […] Report homodimerization of Tie2 as the corresponding RFU ratiometric to RFU from Pro14_anti-Tie2 from assay wells using biotin_anti-Tie2.

Tie2-Tie2 homodimers = molecular target: T3, Tie2-Tie2 homodimers (Homo sapiens, UniProt Q02763); test: Tie2 homodimerization in HUVEC cell lysates, releasable molecular tag assay; assay type: cell-based
T3 construct: endogenous in cells; host or cells: HUVEC
Method: as §8, §9, §1
Pro10_anti-Tie2: 0.25 ug/ml (Tie2 homodimer)
as §10, §11

T1 sequence (P35968 20-1356): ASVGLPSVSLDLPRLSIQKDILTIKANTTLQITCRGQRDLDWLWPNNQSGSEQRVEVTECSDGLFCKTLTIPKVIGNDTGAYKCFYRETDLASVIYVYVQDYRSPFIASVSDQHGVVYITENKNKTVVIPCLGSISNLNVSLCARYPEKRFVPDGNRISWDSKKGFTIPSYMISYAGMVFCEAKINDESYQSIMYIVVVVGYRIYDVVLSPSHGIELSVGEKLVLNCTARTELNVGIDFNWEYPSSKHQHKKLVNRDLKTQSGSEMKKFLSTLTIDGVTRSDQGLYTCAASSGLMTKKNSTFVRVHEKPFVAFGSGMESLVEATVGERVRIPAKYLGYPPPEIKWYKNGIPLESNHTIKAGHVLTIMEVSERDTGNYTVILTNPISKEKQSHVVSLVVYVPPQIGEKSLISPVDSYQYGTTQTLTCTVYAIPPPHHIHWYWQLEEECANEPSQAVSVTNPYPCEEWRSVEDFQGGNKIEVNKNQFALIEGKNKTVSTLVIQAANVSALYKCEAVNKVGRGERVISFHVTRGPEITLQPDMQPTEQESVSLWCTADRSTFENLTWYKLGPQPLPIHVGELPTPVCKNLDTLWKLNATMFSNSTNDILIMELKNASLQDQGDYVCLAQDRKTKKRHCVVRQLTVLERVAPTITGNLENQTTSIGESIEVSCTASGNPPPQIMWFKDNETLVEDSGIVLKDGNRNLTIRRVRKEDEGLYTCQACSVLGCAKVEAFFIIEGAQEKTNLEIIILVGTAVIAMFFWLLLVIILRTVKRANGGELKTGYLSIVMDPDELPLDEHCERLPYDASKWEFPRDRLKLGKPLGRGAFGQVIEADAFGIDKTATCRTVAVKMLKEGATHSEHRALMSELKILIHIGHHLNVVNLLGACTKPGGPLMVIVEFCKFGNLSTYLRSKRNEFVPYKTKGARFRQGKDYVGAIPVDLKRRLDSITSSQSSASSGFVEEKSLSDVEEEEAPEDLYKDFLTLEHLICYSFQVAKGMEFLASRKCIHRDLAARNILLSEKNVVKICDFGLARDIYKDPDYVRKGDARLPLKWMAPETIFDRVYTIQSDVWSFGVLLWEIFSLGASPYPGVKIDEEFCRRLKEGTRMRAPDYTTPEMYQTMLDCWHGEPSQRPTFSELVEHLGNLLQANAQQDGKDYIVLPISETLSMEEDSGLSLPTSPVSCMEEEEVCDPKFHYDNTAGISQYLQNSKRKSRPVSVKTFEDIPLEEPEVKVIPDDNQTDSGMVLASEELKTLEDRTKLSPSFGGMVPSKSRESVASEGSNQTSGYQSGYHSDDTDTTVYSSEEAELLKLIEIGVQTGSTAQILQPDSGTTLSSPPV
T3 sequence (Q02763 23-1124): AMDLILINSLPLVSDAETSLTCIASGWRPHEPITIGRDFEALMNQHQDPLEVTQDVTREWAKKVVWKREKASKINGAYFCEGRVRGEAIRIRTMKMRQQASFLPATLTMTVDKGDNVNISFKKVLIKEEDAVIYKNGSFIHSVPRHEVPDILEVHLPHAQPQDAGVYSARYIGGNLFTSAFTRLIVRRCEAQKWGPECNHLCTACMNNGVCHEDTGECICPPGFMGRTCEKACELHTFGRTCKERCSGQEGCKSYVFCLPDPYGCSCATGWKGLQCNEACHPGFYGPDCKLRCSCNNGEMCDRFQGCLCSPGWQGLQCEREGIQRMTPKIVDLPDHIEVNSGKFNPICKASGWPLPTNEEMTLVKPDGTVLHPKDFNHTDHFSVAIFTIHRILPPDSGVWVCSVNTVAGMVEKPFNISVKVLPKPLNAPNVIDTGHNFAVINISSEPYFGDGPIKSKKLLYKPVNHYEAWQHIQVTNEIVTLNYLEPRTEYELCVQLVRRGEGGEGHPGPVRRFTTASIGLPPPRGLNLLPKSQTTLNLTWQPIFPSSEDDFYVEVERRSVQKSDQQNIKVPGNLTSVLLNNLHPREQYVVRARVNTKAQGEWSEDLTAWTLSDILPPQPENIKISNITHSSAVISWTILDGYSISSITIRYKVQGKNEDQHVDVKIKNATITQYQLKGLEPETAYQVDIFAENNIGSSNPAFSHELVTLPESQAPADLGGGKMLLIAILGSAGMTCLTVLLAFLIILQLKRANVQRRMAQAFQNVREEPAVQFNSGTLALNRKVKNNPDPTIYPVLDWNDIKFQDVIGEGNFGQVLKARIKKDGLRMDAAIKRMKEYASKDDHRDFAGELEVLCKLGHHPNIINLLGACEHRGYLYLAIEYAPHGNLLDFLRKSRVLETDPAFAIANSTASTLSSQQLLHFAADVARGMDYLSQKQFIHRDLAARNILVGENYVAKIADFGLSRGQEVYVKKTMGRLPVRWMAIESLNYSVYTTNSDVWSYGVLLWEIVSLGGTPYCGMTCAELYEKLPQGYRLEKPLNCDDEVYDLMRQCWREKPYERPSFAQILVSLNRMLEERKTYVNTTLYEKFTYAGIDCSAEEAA
VEGFR2, sequence (P35968 20-1356): as the sequence (P35968 20-1356) above
T2 sequence (Q02763 23-1124): as the sequence (Q02763 23-1124) above

total amount of Tie2 receptor (Tie2) | quantity of Tie2-Tie2 homodimers (Tie2-Tie2 homodimers; 200 ng/mL Ang-1, 10 min of stimulation (FIG. 8A)) | quantity of Tie2-Tie2 homodimers (Tie2-Tie2 homodimers; 200 ng/mL Ang-1, 30 min stimulation (FIG. 8A)) | Molecule | phosphorylation state of BAD (BAD) | phosphorylation of Akt (Akt) | VEGFR2-VEGFR2 homodimer formation over time (VEGFR2-VEGFR2 homodimers [1]) | VEGFR2 homodimerization (VEGFR2-VEGFR2 homodimers [1]) | quantity of VEGFR2-VEGFR2 homodimers (VEGFR2-VEGFR2 homodimers [1]) | VEGFR2 phosphorylation (VEGFR2) | VEGFR2 phosphorylation over time (VEGFR2) | VEGFR2 homodimerization (VEGFR2-VEGFR2 homodimers [2]) | phosphorylation state of Erk (Erk) | phosphorylation state of RSK (RSK)
– | – | – | VEGF | increases on HUVEC cells with increasing concentrations of VEGF | increased on HUVEC cells with increasing concentrations of VEGF | form by 1 minute of VEGF stimulation, and remain after up to 14 minutes of stimulation | large increase in VEGFR2 homodimerization | increases on HUVEC cells with increasing concentrations of VEGF | increases on HUVEC cells with increasing concentrations of VEGF | transient, peaking at 1 minute of stimulation and decreasing to background level by 5 minutes | large increase in VEGFR2 homodimerization | increases on HUVEC cells with increasing concentrations of VEGF | increases on HUVEC cells with increasing concentrations of VEGF
does not change with Ang-1 treatment | increase on HUVEC cells | decreases from that level | Ang-1: angiopoietin-1, major physiological ligand for Tie-2, used to stimulate HUVEC cells (protein, UniProt Q15389 16-498, looked up) Angiopoietin-1: HIGCSNQRRSPENSGRRYNRIQHGQCAYTFILPEHDGNCRESTTDQYNTNALQRDAPHVEPDFSSQKLQHLEHVMENYTQWLQKLENYIVENMKSEMAQIQQNAVQNHTATMLEIGTSLLSQTAEQTRKLTDVETQVLNQTSRLEIQLLENSLSTYKLEKQLLQQTNEILKIHEKNSLLEHKILEMEGKHKEELDTLKEEKENLQGLVTRQTYIIQELEKQLNRATTNNSVLQKQQLELMDTVHNLVNLCTKEGVLLKGGKREEEKPFRDCADVYQAGFNKSGIYTIYINNMPEPKKVFCNMDVNGGGWTVIQHREDGSLDFQRGWKEYKMGFGNPSGEYWLGNEFIFAITSQRQYMLRIELMDWEGNRAYSQYDRFHIGNEKQNYRLYLKGHTGTAGKQSSLILHGADFSTKDADNDNCMCKCALMLTGGWWFDACGPSNLNGMFYTAGQNHGKLNGIKWHYFKGPSYSLRSTTMMIRPLDF | – | – | – | – | – | – | – | – | – | –
